Measurements: publication PMC4474874, “Effect of JAK Inhibitors on Release of CXCL9, CXCL10 and CXCL11 from Human Airway Epithelial Cells” (PLoS ONE, 2015)

Columns and labels:
BEAS-2B cells [1] = assay: Release of CXCL9, CXCL10 and CXCL11 from BEAS-2B cells (ELISA), inhibitors added concomitantly with stimulus; format: cell-based, human
Protocol: (§1) Cell-free supernatants were removed 20h post-stimulation and assayed for CXCL9, CXCL10 and CXCL11 using Duoset ELISA kits (R & D Systems Europe, Abingdon, UK) according to the manufacturer’s instructions. The detection limits of these assays are 62pg/ml, 31pg/ml, and 7.8 pg/ml respectively.
It was possible that concomitant addition of stimulus and JAK inhibitors may elicit a different inhibitory profile, therefore to address this, experiments were performed. […] Experiments were then performed to determine the effects of both JAK inhibitors in human primary airway epithelial cells in order to determine whether their ability to suppress CXCR3 chemokine release from BEAS-2B cells was reflective of their efficacy in primary cells.
Media was harvested and the concentrations of CXCL9 (panels a and d), CXCL10 (panels b and e) and CXCL11 (panels c and f) were measured by ELISA. Data are presented as mean±SEM, n = 7–8. (EPS) Click here for additional data file. […]
After this time, media was harvested and the concentrations of CXCR3 chemokines measured by ELISA. Data are presented as mean±SEM, n=4

STAT-3 = STAT-3 DNA binding in BEAS-2B cells (TransAM); format: cell-based, human; conditions: IFNγ + TNFα, inhibitor 10^-6M
Protocol: (§2) STAT phosphorylation, nuclear translocation and DNA binding was determined using TransAM assays (Actif Motif, Rixensart, Belgium). Cells were treated with JAK inhibitors for 30 min prior to stimulation for 1h. Nuclear extracts were prepared using the Actif Motif assay reagents. Briefly, the nuclear extracts (10 μg) were incubated in DNA coated plates for 1h. After washing, antibodies supplied with the TransAM kit that were specific for the active forms of STAT1, STAT3, STAT5A and STAT5B were added to the wells and incubated for a further hour. The plates were washed and a secondary HRP-labelled anti-goat Ig antibody was added and the plates incubated for an hour. After washing, the assay was developed using the TMB substrate provided and the reaction stopped using 2N sulphuric acid. The plates were read at 450nm with a reference filter of 610nm. Data were then normalised to non-stimulated cells and calculated as fold change from baseline.
(§3) After 1 h, nuclear extracts of the cells were prepared and TransAM assays for STAT-1 (panel a) and STAT-3 (panel b) were performed. Data are presented as fold change from baseline ± SEM; n = 4.

BEAS-2B cells [2] = assay: Release of CXCL9, CXCL10 and CXCL11 from BEAS-2B cells (ELISA), inhibitors added 1h before stimulus; format: cell-based, human; conditions: for IC50: BEAS-2B, pre-treated 1h
Protocol: BEAS-2B cells (catalogue number CRL-9609) were purchased directly from American Type Culture Collection (Rockville, MD). Keratinocyte serum-free medium (K-SFM), bovine pituitary extract (BPE), and recombinant human epidermal growth factor (EGF) were purchased from Invitrogen (Paisley, UK). BEAS-2B cells were cultured in K-SFM containing 50 μg/ml BPE and 5 ng/ml EGF at 37°C in a humidified atmosphere comprising 5% (v/v) CO2 in air. Cells were cultured as monolayers in growth factor-free media for 24 h prior to stimulation. Human primary airway epithelial cells were cultured as monolayers from bronchial brushings from both male and female subjects (Table 1) and cultured in LHC-9 media (Invitrogen, Paisley, UK) in collagen (1% w/v) coated flasks. Samples were obtained from non-smokers, smokers and patients with COPD. […] The subjects were matched for age and smokers and COPD patients for smoking history (Table 1). All subjects gave informed written consent and the study was approved by the NRES London-Chelsea Research Ethics committee, study number 09/H0801/85.
as §1
Data are presented as mean ± SEM of ‘n’ independent determinations. Concentration-response curves were analysed by least-squares, non-linear iterative regression with the ‘Graphpad Prism’ curve fitting program (GraphPad software, San Diego, USA) and IC50 values were subsequently interpolated from curves of best-fit. Statistical differences were determined using the Kruskal–Wallis test followed by Dunn's multiple comparison test or a Wilcoxon signed rank test as appropriate. Values of P<0.05 were considered significant.
Media was harvested and the concentrations of CXCL9 (panels a and d), CXCL10 (panels b and e) and CXCL11 (panels c and f) were measured by ELISA. Data are presented as mean±SEM, n = 7–8.

BEAS-2B cells [3] = assay: mRNA expression of CXCL9, CXCL10 and CXCL11 in BEAS-2B cells (Taqman RT-PCR); format: cell-based, human; conditions: BEAS-2b, pretreated 1h, IFNγ or IFNγ with TNFα for 4h
Protocol: Total RNA was extracted from cells and reverse transcribed, as described previously. Gene expression was determined by Taqman real-time PCR on a 7500 Real Time PCR system (Applied Biosystems, Life Technologies Ltd, Paisley, UK) using PCR Master Mix Reagent and ‘assays on demand’ (Applied Biosystems). HPRT1 gene expression was used as the housekeeping gene and data presented as δδCT relative to baseline.
Gene expression of CXCL9 (panels a and b), CXCL10 (panels c and d) and CXCL11 (panels e and f) were quantified by Taqman RT-PCR. Data are presented as fold change form stimulus ± SEM; n = 3 where 1 indicates the level of mRNA induced by IFNγ or IFNγ + TNFα in the absence of inhibitors.

[4] = test system: BEAS-2B and human primary airway epithelial cells; assay: Cell viability, MTT assay; format: cell-based; conditions: for cell viability compared to untreated cells (MTT): at 10^-6M and at all concentrations below this
Protocol: Cell viability was determined colorimetrically by measuring the reduction of 3-[4,5-dimethylthiazol-2-yl]-2,5-diphenyltetrazolium bromide, MTT, to formazan by mitochondrial dehydrogenases, as described previously.
In order to determine whether any of the inhibitory effects of the JAK inhibitors could be attributed to cell death, MTT assays were performed at the end of every experiment. […] In order to address this issue, the levels of IL-6 released from cells stimulated with IFNγ + TNFα were measured.

STAT-1 = STAT-1 DNA binding in BEAS-2B cells (TransAM); format: cell-based, human; conditions: IFNγ and IFNγ + TNFα stimulation
Protocol: as §2, §3

Which results are given for `CCc1cc(O)ccc1-c1ccc2c(-c3nc4ccccc4[nH]3)n[nH]c2c1` [PF1367550, 4-(3-(1H-benzo[d]imidazol-2-yl)-1H-indazol-6-yl)-3-ethylphenol]?
IC50 (BEAS-2B cells [1]; Homo sapiens, 20 h, inhibitor concomitant with IFNγ (10 ng/ml) 20h, read-out: IC50, release of CXCL9): 10.3 ± 2.1 nM; IC50 (BEAS-2B cells [1]; Homo sapiens, 20 h, inhibitor concomitant with IFNγ (10 ng/ml) 20h, read-out: IC50, release of CXCL10): 16.6 ± 2.7 nM; IC50 (BEAS-2B cells [1]; Homo sapiens, 20 h, inhibitor concomitant with IFNγ (10 ng/ml) 20h, read-out: IC50, release of CXCL11): 16 ± 4.1 nM; IC50 (BEAS-2B cells [1]; Homo sapiens, 20 h, inhibitor concomitant with IFNγ+TNFα (10 ng/ml) 20h, read-out: IC50, release of CXCL9): 31.6 ± 13.4 nM; IC50 (BEAS-2B cells [1]; Homo sapiens, 20 h, inhibitor concomitant with IFNγ+TNFα (10 ng/ml) 20h, read-out: IC50, release of CXCL10): 146 ± 32.6 nM; IC50 (BEAS-2B cells [1]; Homo sapiens, 20 h, inhibitor concomitant with IFNγ+TNFα (10 ng/ml) 20h, read-out: IC50, release of CXCL11): 32 ± 8.7 nM; effect on STAT-3 binding to DNA (STAT-3): suppressed; fold more potent than PF956980, CXCR3 chemokine release (BEAS-2B cells [2]; BEAS-2B cells, IFNγ and IFNγ+TNFα): ~ 50 fold; IC50 (BEAS-2B cells [2]; Homo sapiens, IFNγ (10ng/ml) 20h, read-out: IC50, release of CXCL9): 3.6 ± 1.4 nM; IC50 (BEAS-2B cells [2]; Homo sapiens, IFNγ (10ng/ml) 20h, read-out: IC50, release of CXCL10): 6.1 ± 2 nM; IC50 (BEAS-2B cells [2]; Homo sapiens, IFNγ (10ng/ml) 20h, read-out: IC50, release of CXCL11): 11.5 ± 2 nM; IC50 (BEAS-2B cells [2]; Homo sapiens, IFNγ+TNFα (10ng/ml) 20h, read-out: IC50, release of CXCL9): 13.3 ± 2 nM; IC50 (BEAS-2B cells [2]; Homo sapiens, IFNγ+TNFα (10ng/ml) 20h, read-out: IC50, release of CXCL10): 50.3 ± 8.5 nM; IC50 (BEAS-2B cells [2]; Homo sapiens, IFNγ+TNFα (10ng/ml) 20h, read-out: IC50, release of CXCL11): 13.9 ± 2.6 nM; effect on expression of CXCL9, CXCL10 and CXCL11 (mRNA) (BEAS-2B cells [3]): completely inhibited; cell viability compared to untreated cells (MTT) [4]: no alterations in cell viability; effect on cell viability (MTT) ([4]; within 10^3 of the IC50 for this compound): no effect on cell viability; effect on STAT-1 DNA binding (STAT-1): suppressed

With `C[C@@H]1CCN(C(=O)N2CCCC2)C[C@@H]1N(C)c1ncnc2[nH]ccc12` [PF956980] as the compound, how does the IC50 (BEAS-2B cells [1]; inhibitor concomitant with IFNγ (10 ng/ml) 20h, read-out: IC50, release of CXCL9) read?
Its IC50 is 300 ± 100 nM.

What about the IC50 (BEAS-2B cells [1]; inhibitor concomitant with IFNγ (10 ng/ml) 20h, read-out: IC50, release of CXCL10) of the same compound?
Its IC50 is 1100 ± 400 nM.

What about the IC50 (BEAS-2B cells [1]; inhibitor concomitant with IFNγ (10 ng/ml) 20h, read-out: IC50, release of CXCL11) of the same compound?
Its IC50 is 1100 ± 300 nM.

What about the IC50 (BEAS-2B cells [1]; inhibitor concomitant with IFNγ+TNFα (10 ng/ml) 20h, read-out: IC50, release of CXCL9) of the same compound?
The IC50 was 1000 ± 300 nM.

And the IC50 (BEAS-2B cells [1]; inhibitor concomitant with IFNγ+TNFα (10 ng/ml) 20h, read-out: IC50, release of CXCL10)?
The IC50 was 4000 ± 1300 nM.

What about the “effect on STAT-3 binding to DNA” value (STAT-3) of the same compound?
Its value is “suppressed”.

What about the IC50 (BEAS-2B cells [2]; IFNγ (10ng/ml) 20h, read-out: IC50, release of CXCL9) of the same compound?
Its IC50 is 400 ± 100 nM.

What about the IC50 (BEAS-2B cells [2]; IFNγ (10ng/ml) 20h, read-out: IC50, release of CXCL10) of the same compound?
The IC50 was 600 ± 300 nM.

What about the IC50 (BEAS-2B cells [2]; IFNγ (10ng/ml) 20h, read-out: IC50, release of CXCL11) of the same compound?
The IC50 was 500 ± 100 nM.

And the IC50 (BEAS-2B cells [2]; IFNγ+TNFα (10ng/ml) 20h, read-out: IC50, release of CXCL9)?
The IC50 was 600 ± 100 nM.

And the IC50 (BEAS-2B cells [2]; IFNγ+TNFα (10ng/ml) 20h, read-out: IC50, release of CXCL10)?
Its IC50 is 2200 ± 300 nM.

What about the “effect on IFNγ-stimulated release of CXCL9, CXCL10 and CXCL11” value (BEAS-2B cells [2]; present study, IFNγ-stimulated) of the same compound?
Its value is “completely attenuated”.

And the “effect on expression of CXCL9, CXCL10 and CXCL11 (mRNA)” value (BEAS-2B cells [3])?
The value was “suppressed expression of CXCL9, CXCL10 and CXCL11 in a concentration dependent manner”.

And the “effect on cell viability (MTT)” value ([4]; any of the concentrations used in this study)?
The value was “no effect on cell viability”.

What about the “cell viability compared to untreated cells (MTT)” value [4] of the same compound?
The value was “no alterations in cell viability”.

And the “effect on STAT-1 DNA binding” value (STAT-1)?
The value was “suppressed”.
